Experimental data: patent publication US20210052633A1, “HYALURONIC ACID SYNTHESIS PROMOTER, METHOD FOR PROMOTING HYALURONIC ACID SYNTHESIS, AND CELL EVALUATION METHOD” (SEIKAGAKU CORPORATION, priority 2018, published 2021)

Experiments:
[1] = test system: Human synovial cells derived from a patient with rheumatism (HFLS-RA); assay: Hyaluronic acid synthesis by synovial cells ([3H] glucosamine incorporation, HPLC fractionation by molecular weight); type: cell-based
Experimental: Compound 1 or sodium hyaluronate (HA) (ARTZ Dispo (registered trademark) (manufactured by Seikagaku Corporation)) was mixed in a solution containing a phosphate buffer solution (GIBCO) and an α-MEM (GIBCO) concentrated medium. Further, each reagent was added and mixed in the resulting solution so that the final concentrations were as follows: 10% (v/v) fetal bovine serum (hereinafter FBS (MP Biomedicals)), 10 ng/mL recombinant human IL-1β/IL-1F2 (hereinafter IL-1β (R & D Systems)), 1% (w/v) penicillin/streptomycin (GIBCO), and 370 kBq/mL [^3H] glucosamine (Perkin Elmer). As a result, the following five solutions were obtained as test substances.
Human synovial cells derived from a patient with rheumatism (HFLS-RA, CELL APPLICATIONS, INC.) were subcultured and grown in a 175-cm^2 flask. In the cell culture, Basal medium (containing 10% (v/v) Growth supplement and 1% (w/v) penicillin/streptomycin) (manufactured by Cell Applications, Inc.) was used. Thereafter, the cells were seeded in a 6-well plate at 3.0×10^5 cells/2 mL/well and cultured for about 24 hours until confluence was reached. In the cell culture, α-MEM medium (containing 10% (v/v) FBS and 1% (w/v) penicillin/streptomycin) was used. After removing the culture supernatant, 2 mL of the test substance was added to the cells, and the cells were further cultured for 48 hours. The culture was performed at 37° C. in a CO2 incubator (5% (v/v) CO2). After completion of the culture, the culture supernatant was collected and cryopreserved in an ultra-low temperature freezer until measurement.
Since glucosamine is a constituent monosaccharide of hyaluronic acid, in hyaluronic acid newly synthesized in the cells after addition of the test substance, [^3H] glucosamine is incorporated. Therefore, hyaluronic acid in the collected culture supernatant was separated according to molecular weight using HPLC, and fractions were collected every 0.5 minutes using a fraction collector. To each of the collected fractions, 0.5 mL of a scintillation fluid was added and mixed. Thereafter, the radioactivity (dpm, disintegrations per minute) of each fraction was measured using a scintillation counter, and the radioactivity (the amount of [^3H] glucosamine incorporated into newly produced hyaluronic acid) was evaluated. The HPLC conditions are as follows.
Mobile phase: a solution of 5 mmol/L phosphate buffer solution (pH 6.0) with 0.82% (w/v) NaCl:acetonitrile=2:1 (v:v)
Column: OH pak SB-805 HQ column (Shodex (registered trademark)), column temperature: 35° C.
The hyaluronic acid standard solution was separated by HPLC, and UV absorption at a wavelength of 210 nm was measured. Fraction No. in which the peak top of the hyaluronic acid standard solution of each molecular weight is collected was calculated. As the hyaluronic acid standard solutions, Select-HATM 500 k (average molecular weight: 528,000), Select-HATM 1,000 k (average molecular weight: 1,076,000), and Select-HATM 2,500 k (average molecular weight: 2,420,000) were used.
The same procedure as in Example 1 was performed. Note that the culture supernatant was collected at respective time points (8, 24, 36, 48, and 72 hours) after adding the test substance to the cells.
A control solution, a 0.01% (w/v %) compound 1 solution, and a 0.01% (w/v %) sodium hyaluronate (HA) solution were prepared in the same manner as in Example 1. DF-Na (0.014 μg/mL, 0.14 μg/mL, 1.4 μg/mL, and 14 μg/mL) solutions were prepared by dissolving DF-Na in the control solution. Further, a HA+DF-Na mixed liquid was obtained by dissolving DF-Na (1.4 μg/mL) in the 0.01% (w/v %) sodium hyaluronate (HA) solution.
(§1) The same procedure as in Example 1 was performed.
The same procedure as in Example 1 was performed. Note that a column (OH pak SB-807 HQ column (Shodex (registered trademark)) having higher separability on the high molecular weight side than the HPLC column (OH pak SB-805 HQ column (Shodex (registered trademark)) was used.

[2] = test system: Human synovial cells derived from a patient with rheumatism (HFLS-RA); assay: Hyaluronidase treatment of culture supernatant, then fractionation and radioactivity measurement; type: cell-based; conditions: Example 2, 0.01% (w/v)
Experimental: It was verified that the substance whose synthesis was promoted by the action of the compound 1 is hyaluronic acid by confirming the presence or absence of degradation by a hyaluronic acid-degrading enzyme (hyaluronidase).
as §1
The culture supernatant (90 μL) collected after adding the 0.01% HA solution and 10 μL of 100 TRU/mL hyaluronidase (or water for injection) were mixed and reacted overnight at 37° C., thereby performing a hyaluronidase treatment. The culture supernatant (90 μL) collected after adding the 0.01% compound 1 solution and 30 μL of 100 TRU/mL hyaluronidase (or water for injection) were mixed and reacted at 60° C. for 3 hours, thereby performing a hyaluronidase treatment. The hyaluronidase (derived from an actinomycetes) was purchased from Seikagaku Biobusiness Corporation.

[3] = test system: model rabbit with antigen-induced arthritis; assay: Hyaluronic acid synthesis in the knee joint of a model rabbit with antigen-induced arthritis; type: in vivo, Japanese white rabbit
Source text: A 0.5% (w/v %) compound 1 solution was obtained by mixing respective solutions of a 1% (w/v) compound 1 solution (phosphate buffer solution), a 10% (w/v) ovalbumin solution (phosphate buffer solution) and [^3H] glucosamine (phosphate buffer solution, 37 MBq/mL) at a ratio of 5:1:4 (v:v:v). In the preparation of a control solution, a phosphate buffer solution was used in place of the compound 1 solution. In the preparation of a sodium hyaluronate (HA) solution, ARTZ Dispo (registered trademark) (manufactured by Seikagaku Corporation) was used in place of the compound 1 solution. Further, a Normal solution not containing ovalbumin (an arthritis-inducing substance) was obtained by mixing respective solutions of a phosphate buffer solution and [^3H] glucosamine (phosphate buffer solution, 37 MBq/mL) at a ratio of 3:2 (v:v). As test substances, the following substances were used.
Ovalbumin (SIGMA) was dissolved and prepared with physiological saline (Otsuka Pharmaceutical Factory, Inc.) at 1% (w/v), and a water-in-oil emulsion was prepared with Freund's complete adjuvant (CAPPEL) at 1:1 (v:v). The emulsion was intradermally administered at a total dose of 1 mL to dozens of sites of the back of a Japanese white rabbit (male, 16 weeks of age, Oriental Yeast Industry Co., Ltd.) under general anesthesia (midazolam, xylazine, and butorphanol at 0.67 mg/kg, 5.3 mg/kg, and 0.67 mg/kg, i.v., respectively) to sensitize the rabbit. On day 12 after sensitization, the rabbit was additionally sensitized by administering the emulsion in the same manner. […]
Since glucosamine is a constituent monosaccharide of hyaluronic acid, in hyaluronic acid newly synthesized in the living body after administration of the test substance, [^3H] glucosamine is incorporated. […] Thereafter, the radioactivity (dpm, disintegrations per minute) of each fraction was measured using a scintillation counter, and the radioactivity (the amount of [^3H] glucosamine incorporated into newly synthesized hyaluronic acid) was evaluated. […]

[4] = test system: synovial cells derived from patients with osteoarthritis (HFLS-OA)
Experimental: The cells derived from three patients with each disease (3 lots) were separately evaluated and the number of cases was set to 3.
After the culture supernatant was collected, the adhered cells were detached from each well. Thereafter, the cell count was measured using a trypan blue solution and a hemacytometer.

[5] = test system: HAS2 mRNA; assay: Relative mRNA level (real-time PCR, ΔΔCt) in synovial cells; type: cell-based, human; conditions: HFLS-OA, 0.1% (w/v), 48 hours, vs control
Experimental: (§2) Compound 1 or sodium hyaluronate (HA) (ARTZ Dispo (registered trademark) (manufactured by Seikagaku Corporation)) was mixed in a solution containing a phosphate buffer solution and an α-MEM concentrated medium. Further, each reagent was added and mixed in the resulting solution so that the final concentrations were as follows: 10% (v/v) fetal bovine serum (hereinafter FBS), 10 ng/mL recombinant human IL-1β/IL-1F2 (hereinafter IL-1β), and 1% (w/v) penicillin/streptomycin. As a result, the following three solutions were prepared as test substances.
(§3) Human synovial cells derived from a patient with osteoarthritis (HFLS-OA, CELL APPLICATIONS, INC.) were subcultured and grown in a 175-cm^2 flask. In the cell culture, Basal medium (containing 10% (v/v) Growth supplement and 1% (w/v) penicillin/streptomycin) (manufactured by Cell Applications, Inc.) was used. Thereafter, the cells were seeded in a 6-well plate at 3.0×10^5 cells/2 mL/well and cultured for about 24 hours until confluence was reached. In the cell culture, α-MEM medium (containing 10% (v/v) FBS and 1% (w/v) penicillin/streptomycin) was used. […]
(§4) The cDNA sample was subjected to real-time PCR using Premix ExTaq (Perfect Real Time) (Takara Bio, Inc.), the Ct values of target genes (HAS1, HAS2, HAS3, HYAL1, HYAL2, and HYAL3) and GAPDH were measured, and relative mRNA levels were calculated by the ΔΔCt method.

[6] = test system: HYAL2 mRNA; assay: as above; type: cell-based, human; conditions: HFLS-OA, 0.1% (w/v), 48 hours, vs control
Experimental: as §2, §3, §4

[7] = test system: human synovial cells derived from three patients with osteoarthritis (HFLS-OA); assay: Hyaluronic acid synthesis by synovial cells ([3H] glucosamine incorporation, HPLC fractionation by molecular weight); type: cell-based; conditions: 48 hours, SB-807 HQ column
[8] = 0.5% (w/v), 0.5 mL/joint, 48 hours

| Molecule | action of producing high molecular weight hyaluronic acid observed in the compound 1 group ([1]; Example 4, HFLS-RA, 48 hours, 0.01% HA, DF-Na 1.4 μg/mL, or both mixed) | molecular weight peak of hyaluronic acid produced ([1]; Example 4, HFLS-RA, DF-Na 1.4 μg/mL, 48 hours) | action of promoting hyaluronic acid synthesis ([1]; Example 4, HFLS-RA, DF-Na 0.014 to 14 μg/mL, 48 hours) | peak of the high molecular weight radioactive substance after hyaluronidase treatment ([2]; hyaluronidase (+)) | production and molecular weight of high molecular weight radioactive substance ([2]; hyaluronidase (−)) | molecular weight peak of hyaluronic acid synthesized in the knee joint ([3]; 0.5% (w/v) solution, 0.5 mL/joint into the knee joint cavity, joint fluid at 48 hours, normal rabbit peak higher than 2,300,000) | amount of high molecular weight hyaluronic acid produced in the knee joint [3, 8] | production amount of hyaluronic acid in the knee joint [3, 8] | cell count after cell culture [4] | action of promoting the synthesis of high molecular weight hyaluronic acid ([1]; Example 1, HFLS-RA, 0.1% and 0.01% (w/v), 48 hours) | molecular weight peak of hyaluronic acid produced ([1]; Example 1, HFLS-RA, IL-1β, 0.1% and 0.01% (w/v) test substance, 48 hours, SB-805 HQ column, control peak in the vicinity of 500,000) | molecular weight peak of hyaluronic acid produced ([1]; Example 3, HFLS-RA, 0.1% (w/v), 8, 24, 36, 48 and 72 hours, control in the vicinity of 500,000) | content of hyaluronic acid over time ([1]; Example 3, HFLS-RA, 0.1% (w/v), 8 to 72 hours) | molecular weight peak of hyaluronic acid produced ([1]; Example 4, HFLS-RA, 0.01% (w/v), 48 hours, control in the vicinity of 500,000) | molecular weight peak of hyaluronic acid produced ([1]; Example 5, synovial cells from three patients with rheumatism, 0.01% (w/v), 48 hours, SB-807 HQ column) | expression of HAS2 mRNA (relative mRNA level) [5] | expression of HYAL2 mRNA (relative mRNA level) [6] | molecular weight peak of hyaluronic acid produced ([7]; Example 5, 0.01% (w/v)) | molecular weight of hyaluronic acid produced ([7]; Example 5, 0.1% (w/v)) |
| --- | --- | --- | --- | --- | --- | --- | --- | --- | --- | --- | --- | --- | --- | --- | --- | --- | --- | --- | --- |
| O=C(O)Cc1ccccc1Nc1c(Cl)cccc1Cl [DF-Na, diclofenac sodium, reference compound] | not observed | ~500,000 | not observed at any concentration |  |  |  |  |  |  |  |  |  |  |  |  |  |  |  |  |
| Aminoethanol-diclofenac-introduced sodium hyaluronate [compound 1] |  |  |  | disappearance of the peak | higher molecular weight than the radioactive substance in the 0.01% HA (hyaluronidase (−)) group | ~2,300,000 | prominent as compared with the sodium hyaluronate administration group | more prominent in the compound 1 administration group even as compared with the normal group | no significant increase or decrease | has an action of promoting the synthesis of high molecular weight hyaluronic acid | high molecular weight exceeding the molecular weight of hyaluronic acid produced in the HA group | higher molecular weight than that in the HA groups | increases over time | more prominent than in the HA group | ~2,400,000 | significantly promotes | significantly suppresses | ~2,400,000 | more than 2,400,000 |
